#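 These data come from cells grown in 96-well plates and exposed to compound for 48 hours at five concentrations. TGI denotes the concentration required for complete inhibition of growth.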
# How the values were obtained:
# Experiment in all cases: NCI tumour cell line growth inhibition, 48 h
# [1] = test system: SR leukemia
# [2] = test system: KM12 colon
# [3] = test system: BT-549 breast
# [4] = test system: HT29 colon
# [5] = test system: CAKI-1 renal
# [6] = test system: OVCAR-4 ovarian
# [7] = test system: M14 melanoma
# [8] = test system: SK-MEL-28 melanoma
# [9] = test system: MDA-N
# [10] = test system: OVCAR-5 ovarian
# [11] = test system: IGROV1 ovarian
# [12] = test system: NCI-H226 lung
# [13] = test system: SK-OV-3 ovarian
# [14] = test system: SF-268 CNS
# [15] = test system: DU-145 prostate
# [16] = test system: HCT-116 colon
# [17] = test system: ACHN renal
# [18] = test system: SK-MEL-2 melanoma
# [19] = test system: TK-10 renal
# [20] = test system: SF-295 CNS
# [21] = test system: MALME-3M melanoma
# [22] = test system: RXF 393 renal
# [23] = test system: 786-0 renal
# [24] = test system: NCI/ADR-RES ovarian
# [25] = test system: OVCAR-3 ovarian
# [26] = test system: MDA-MB-435
# [27] = test system: MDA-MB-231 breast
# [28] = test system: RPMI-8226 leukemia
# [29] = test system: NCI-H460 lung
# [30] = test system: HOP-92 NSCLC
# [31] = test system: EKVX NSCLC
# [32] = test system: U251 CNS
# [33] = test system: SK-MEL-5 melanoma
# [34] = test system: UACC-62 melanoma
# [35] = test system: UACC-257 melanoma
# [36] = test system: HCT-15 colon
# [37] = test system: K-562 leukemia
# [38] = test system: NCI-H522 lung
# [39] = test system: CCRF-CEM leukemia
# [40] = test system: SNB-75 CNS
# [41] = test system: OVCAR-8 ovarian
# [42] = test system: HS 578T breast
# [43] = test system: COLO 205 colon
# [44] = test system: HOP-62 NSCLC
# [45] = test system: SW-620 colon
# [46] = test system: LOX IMVI melanoma
# [47] = test system: MOLT-4 leukemia
# [48] = test system: A498 renal
# [49] = test system: T-47D breast
# [50] = test system: HCC-2998 colon
# [51] = test system: NCI-H23 lung
# [52] = test system: SNB-19 CNS
# [53] = test system: A549 NSCLC
# [54] = test system: UO-31 renal
# [55] = test system: SN12C renal
# [56] = test system: PC-3 prostate
# [57] = test system: HL-60(TB) leukemia
# [58] = test system: MCF7 breast
# [59] = test system: SF-539 CNS
compound,measurement,setting,value
O=C1Nc2ccccc2C1S(=O)(=O)c1ccccc1 (stereo unspecified),TGI,[1],> 100 µM
same,TGI,[2],> 100 µM
same,TGI,[3],> 100 µM
same,TGI,[4],> 100 µM
same,TGI,[5],> 100 µM
same,TGI,[6],> 100 µM
same,TGI,[7],> 100 µM
same,TGI,[8],> 100 µM
same,TGI,[9],> 100 µM
same,TGI,[10],> 100 µM
same,TGI,[11],> 100 µM
same,TGI,[12],> 100 µM
same,TGI,[13],> 100 µM
same,TGI,[14],> 100 µM
same,TGI,[15],> 100 µM
same,TGI,[16],> 100 µM
same,TGI,[17],> 100 µM
same,TGI,[18],> 100 µM
same,TGI,[19],> 100 µM
same,TGI,[20],> 100 µM
same,TGI,[21],> 100 µM
same,TGI,[22],> 100 µM
same,TGI,[23],> 100 µM
same,TGI,[24],> 100 µM
same,TGI,[25],> 100 µM
same,TGI,[26],> 100 µM
same,TGI,[27],> 100 µM
same,TGI,[28],> 100 µM
same,TGI,[29],> 100 µM
same,TGI,[30],> 100 µM
same,TGI,[31],> 100 µM
same,TGI,[32],> 100 µM
same,TGI,[33],> 100 µM
same,TGI,[34],> 100 µM
same,TGI,[35],> 100 µM
same,TGI,[36],> 100 µM
same,TGI,[37],> 100 µM
same,TGI,[38],> 100 µM
same,TGI,[39],> 100 µM
same,TGI,[40],> 100 µM
same,TGI,[41],> 100 µM
same,TGI,[42],> 100 µM
same,TGI,[43],> 100 µM
same,TGI,[44],> 100 µM
same,TGI,[45],> 100 µM
same,TGI,[46],> 100 µM
same,TGI,[47],> 100 µM
same,TGI,[48],> 100 µM
same,TGI,[49],> 100 µM
same,TGI,[50],> 100 µM
same,TGI,[51],> 100 µM
same,TGI,[52],> 100 µM
same,TGI,[53],> 100 µM
same,TGI,[54],> 100 µM
same,TGI,[55],> 100 µM
same,TGI,[56],> 100 µM
O=c1[nH]c(=S)[nH]c2c(C3OC(CO)C(O)C3O)nsc12 (stereo unspecified),TGI,[3],> 100 µM
same,TGI,[4],> 100 µM
same,TGI,[5],> 100 µM
same,TGI,[6],> 100 µM
same,TGI,[7],> 100 µM
same,TGI,[8],> 100 µM
same,TGI,[57],> 100 µM
same,TGI,[9],> 100 µM
same,TGI,[10],> 100 µM
same,TGI,[11],> 100 µM
same,TGI,[12],> 100 µM
same,TGI,[13],> 100 µM
same,TGI,[14],> 100 µM
same,TGI,[15],> 100 µM
same,TGI,[16],> 100 µM
same,TGI,[18],> 100 µM
same,TGI,[19],> 100 µM
same,TGI,[20],> 100 µM
same,TGI,[21],> 100 µM
same,TGI,[22],> 100 µM
same,TGI,[24],> 100 µM
same,TGI,[25],> 100 µM
same,TGI,[26],> 100 µM
same,TGI,[29],> 100 µM
same,TGI,[30],> 100 µM
same,TGI,[31],> 100 µM
same,TGI,[32],> 100 µM
same,TGI,[33],> 100 µM
same,TGI,[34],> 100 µM
same,TGI,[35],> 100 µM
same,TGI,[36],> 100 µM
same,TGI,[37],> 100 µM
same,TGI,[39],> 100 µM
same,TGI,[40],> 100 µM
same,TGI,[41],> 100 µM
same,TGI,[42],> 100 µM
same,TGI,[43],> 100 µM
same,TGI,[44],> 100 µM
same,TGI,[45],> 100 µM
same,TGI,[58],> 100 µM
same,TGI,[46],> 100 µM
same,TGI,[47],> 100 µM
same,TGI,[48],> 100 µM
same,TGI,[49],> 100 µM
same,TGI,[59],> 100 µM
same,TGI,[50],> 100 µM
same,TGI,[53],> 100 µM
same,TGI,[55],> 100 µM
same,TGI,[56],> 100 µM
COc1cccc(/C=C2/S/C(=N/Nc3nc(C)c(C(C)=O)s3)NC2=O)c1O,TGI,[1],> 100 µM
same,TGI,[2],> 100 µM
same,TGI,[3],97 µM
same,TGI,[4],> 100 µM
same,TGI,[5],> 100 µM
same,TGI,[6],> 100 µM
same,TGI,[7],> 100 µM
same,TGI,[8],> 100 µM
same,TGI,[57],46 µM
same,TGI,[9],> 100 µM
same,TGI,[10],94.2 µM
same,TGI,[11],> 100 µM
same,TGI,[12],> 100 µM
same,TGI,[13],> 100 µM
same,TGI,[14],> 100 µM
same,TGI,[15],> 100 µM
same,TGI,[16],> 100 µM
same,TGI,[17],51.6 µM
same,TGI,[18],48 µM
same,TGI,[19],94.2 µM
same,TGI,[20],> 100 µM
same,TGI,[21],88.2 µM
same,TGI,[22],93.2 µM
same,TGI,[23],> 100 µM
same,TGI,[24],> 100 µM
same,TGI,[25],60.3 µM
same,TGI,[26],> 100 µM
same,TGI,[27],44.8 µM
same,TGI,[28],84.6 µM
same,TGI,[29],> 100 µM
same,TGI,[30],91.7 µM
same,TGI,[31],84.4 µM
same,TGI,[32],44 µM
same,TGI,[33],43.5 µM
same,TGI,[34],43.9 µM
same,TGI,[35],86.2 µM
same,TGI,[36],> 100 µM
same,TGI,[37],> 100 µM
same,TGI,[38],33.2 µM
same,TGI,[39],50.7 µM
same,TGI,[40],> 100 µM
same,TGI,[41],> 100 µM
same,TGI,[42],> 100 µM
same,TGI,[43],64.9 µM
same,TGI,[44],> 100 µM
same,TGI,[45],> 100 µM
same,TGI,[58],> 100 µM
same,TGI,[46],> 100 µM
same,TGI,[48],> 100 µM
same,TGI,[49],96.5 µM
same,TGI,[59],> 100 µM
same,TGI,[50],> 100 µM
same,TGI,[51],> 100 µM
same,TGI,[52],> 100 µM
same,TGI,[53],> 100 µM
same,TGI,[54],51.3 µM
same,TGI,[55],> 100 µM
same,TGI,[56],70.4 µM
CC1=CC(=O)c2c(O)c3c(c(O)c2C1=O)C1C(O)C(C3=O)C23C(=O)c4c(O)c(C)cc(O)c4C(O)=C2C(=O)CC(O)C13 (stereo unspecified),TGI,[1],6.52 µM
same,TGI,[2],2.5 µM
same,TGI,[3],17.9 µM
same,TGI,[4],7.05 µM
same,TGI,[5],3.57 µM
same,TGI,[6],28 µM
same,TGI,[7],10.5 µM
same,TGI,[8],6.78 µM
same,TGI,[57],> 100 µM
same,TGI,[9],2.89 µM
same,TGI,[10],9.08 µM
same,TGI,[11],6.58 µM
same,TGI,[12],6.56 µM
same,TGI,[13],6.86 µM
same,TGI,[14],7.54 µM
same,TGI,[15],3.61 µM
same,TGI,[16],2.5 µM
same,TGI,[17],7.44 µM
same,TGI,[18],3.79 µM
same,TGI,[19],11.6 µM
same,TGI,[20],2.3 µM
same,TGI,[21],2.91 µM
same,TGI,[23],5.69 µM
same,TGI,[25],7.75 µM
same,TGI,[26],2.81 µM
same,TGI,[27],9.89 µM
same,TGI,[29],5.23 µM
same,TGI,[31],8.21 µM
same,TGI,[32],15.9 µM
same,TGI,[33],4 µM
same,TGI,[34],3.24 µM
same,TGI,[35],3.5 µM
same,TGI,[36],6.91 µM
same,TGI,[37],> 100 µM
same,TGI,[39],> 100 µM
same,TGI,[40],9.1 µM
same,TGI,[41],8.65 µM
same,TGI,[42],3.44 µM
same,TGI,[43],4.76 µM
same,TGI,[44],6.21 µM
same,TGI,[45],12.2 µM
same,TGI,[58],14.6 µM
same,TGI,[46],4.7 µM
same,TGI,[47],13 µM
same,TGI,[48],3.37 µM
same,TGI,[49],5.75 µM
same,TGI,[59],5.07 µM
same,TGI,[50],10.2 µM
same,TGI,[51],14.1 µM
same,TGI,[52],20.2 µM
same,TGI,[53],10.8 µM
same,TGI,[55],5.55 µM
same,TGI,[56],10.2 µM

# Source: PubChem BioAssay (NCI)
